Test system: HDR in HEK293 reporter cell line (truncated EGFP)
Experiment: HDR assay with paired nickases Cas9n D10A RNP and ssOligo donor, EGFP-positive cells by FACS
Format: cell-based, human
Conditions: three concentrations (low, medium, high), FIG. 3
Protocol: More specifically, an HDR assay using a HEK reporter cell line containing truncated EGFP may be used. These cells may be transfected with a transfection complex containing the CRISPR endonuclease and a donor sequence. Cas9 RNPs may be prepared by following the manufacturers' guidelines. The transfection complex may be prepared by adding Cas9 RNP or Cas9 nickase RNP, along with ssOligo donor and lipofectamine 2000 in Optimem. Reagents should be mixed well and incubated for 20 mins. After 20 mins, 50 μlof transfection complex (at an optimal concentration—see the Examples herein) may be transferred in a 96 well plate and 50 μlHEK293 reporter cell line suspension (9×10^5 cells/ml) added followed by 50 μl of cell culture medium containing appropriate concentration(s) of inhibitor(s). Cells may be incubated at 37° C. in a CO2 incubator for 24 hours and then inhibitor-containing media should be replaced with fresh media without inhibitor. Cells are then further incubated for 48 hours. After 48 hours, cells may be trypsinized and resuspended in PBS containing 10% FBS. Samples may be run on FACS and the percentage of EGFP in the population measured. Presence of EGFP directly correlates with HDR efficiency. […]
To understand if inhibitors have any influence on HDR mediated by paired nickases, we carried out an HDR assay in the presence of the small molecule inhibitor library. Briefly, in vitro reconstituted Cas9n D10A RNP with gRNA-X1 and gRNA-X2 was transfected into the reporter cell line along with ssOligo donor in the presence of different small molecule inhibitors. Inhibitor-containing media was replaced with fresh media after 24 hours and the cells were then further incubated for 48 hours. After 48 hours, the cells were trypsinized and resuspended in 10% FBS containing PBS and analysed by FACS. EGFP-positive cells were monitored; these represented successful HDR events. […]

| SMILES | dose-dependency of HDR efficiency |
| --- | --- |
| Cl.O=C([C@@H](Cc1cccc(C(F)(F)F)c1)NS(=O)(=O)c1cc(F)c2c(c1)CCNC2)N1CCCC1 [(R)-PFI2 hydrochloride] | dose-dependent increases in HDR efficiency |
| Clc1cc2c(NC3CCCC3)nnc(-c3ccncc3)c2cc1Cl [A196] | dose-dependent increases in HDR efficiency |
| CN(C)[C@H]1CN(C2CCc3cccc(F)c32)C[C@@H]1c1ccc(N2CCN(S(C)(=O)=O)CC2)cc1 (some centres unmarked) [A395] | did not show any significant dose-dependency |
| O=C(Nc1c[nH]nc1-c1nc2cc(CN3CCOCC3)ccc2[nH]1)NC1CC1 [AT9283] | moderate decreases in HDR efficiency upon increasing the inhibitor concentration |
| CCN(C(=O)CO)[C@H]1CN(/C(=N\C#N)Nc2cccc(OC(F)F)c2)N=C1c1ccc(Cl)c(Cl)c1 [BAY598] | dose-dependent increases in HDR efficiency |
| COc1ccc(CCC(=O)Nc2nc3ccc(Cl)cc3s2)cc1OC [KY02111] | did not show any significant dose-dependency |
| O=c1cc(N2CCOCC2)oc2c(-c3cccc4c3sc3ccccc34)cccc12 [NU7441] | dose-dependent increases in HDR efficiency |
| CCCCc1nc2cc(/C=C/C(=O)NO)ccc2n1CCN(CC)CC [SB939] | moderate decreases in HDR efficiency upon increasing the inhibitor concentration |

Same assay, conditions: three concentrations tested, FIG. 3

| SMILES | concentration with highest HDR efficiency |
| --- | --- |
| Cl.O=C([C@@H](Cc1cccc(C(F)(F)F)c1)NS(=O)(=O)c1cc(F)c2c(c1)CCNC2)N1CCCC1 [(R)-PFI2 hydrochloride] | 20 µM |
| Clc1cc2c(NC3CCCC3)nnc(-c3ccncc3)c2cc1Cl [A196] | 20 µM |
| O=C(Nc1c[nH]nc1-c1nc2cc(CN3CCOCC3)ccc2[nH]1)NC1CC1 [AT9283] | 0.05 µM |
| CCN(C(=O)CO)[C@H]1CN(/C(=N\C#N)Nc2cccc(OC(F)F)c2)N=C1c1ccc(Cl)c(Cl)c1 [BAY598] | 20 µM |
| O=c1cc(N2CCOCC2)oc2c(-c3cccc4c3sc3ccccc34)cccc12 [NU7441] | 2 µM |
| CCCCc1nc2cc(/C=C/C(=O)NO)ccc2n1CCN(CC)CC [SB939] | 0.05 µM |

Test system: HEK reporter cell line
Experiment: cell-viability assay with alamar blue reagent
Format: cell-based, human
Conditions: 0.1 μM inhibitor, 72 hours
Protocol: To investigate the effect of this library on HDR efficiency and to identify novel molecules which would increase the HDR mediated gene editing efficiency, first we carried out a cell-viability assay using the HEK reporter cell line and alamar blue reagent. The experiment was performed to rule out any toxicity associated with the small molecule library. Briefly, 3 different concentration of inhibitors (0.1 μM, 1 μM and 10 μM) were added in the cells in a 96 well plate format and plates were incubated for 72 hours. After 72 hours, the media were replaced with alamar blue containing media and the plates were further incubated for 3 hours and then read on a Fluorstar omega plate reader. The table gives the results obtained with the subsequently-selected inhibitors, together with a range of other potential inhibitors.

| SMILES | % survival |
| --- | --- |
| Cl.O=C([C@@H](Cc1cccc(C(F)(F)F)c1)NS(=O)(=O)c1cc(F)c2c(c1)CCNC2)N1CCCC1 [(R)-PFI2 hydrochloride] | 102.58 ± 0.88% |
| Clc1cc2c(NC3CCCC3)nnc(-c3ccncc3)c2cc1Cl [A196] | 105.84 ± 0.05% |
| CN(C)[C@H]1CN(C2CCc3cccc(F)c32)C[C@@H]1c1ccc(N2CCN(S(C)(=O)=O)CC2)cc1 (some centres unmarked) [A395] | 100.35 ± 1.4% |
| CCN(C(=O)CO)[C@H]1CN(/C(=N\C#N)Nc2cccc(OC(F)F)c2)N=C1c1ccc(Cl)c(Cl)c1 [BAY598] | 102.45 ± 0.9% |
| COc1ccc(CCC(=O)Nc2nc3ccc(Cl)cc3s2)cc1OC [KY02111] | 100.52 ± 2.05% |
| O=c1cc(N2CCOCC2)oc2c1ccc1ccccc12 [NU7026] | 100.08 ± 4.01% |
| O=c1cc(N2CCOCC2)oc2c(-c3cccc4c3sc3ccccc34)cccc12 [NU7441] | 103.58 ± 4.44% |
| CCCCc1nc2cc(/C=C/C(=O)NO)ccc2n1CCN(CC)CC [SB939] | 80.99 ± 1.01% |

Same assay, conditions: 1 μM inhibitor, 72 hours

| SMILES | % survival |
| --- | --- |
| Cl.O=C([C@@H](Cc1cccc(C(F)(F)F)c1)NS(=O)(=O)c1cc(F)c2c(c1)CCNC2)N1CCCC1 [(R)-PFI2 hydrochloride] | 101.51 ± 4.1% |
| Clc1cc2c(NC3CCCC3)nnc(-c3ccncc3)c2cc1Cl [A196] | 107.75 ± 6.83% |
| CN(C)[C@H]1CN(C2CCc3cccc(F)c32)C[C@@H]1c1ccc(N2CCN(S(C)(=O)=O)CC2)cc1 (some centres unmarked) [A395] | 103.27 ± 0.32% |
| CCN(C(=O)CO)[C@H]1CN(/C(=N\C#N)Nc2cccc(OC(F)F)c2)N=C1c1ccc(Cl)c(Cl)c1 [BAY598] | 102.92 ± 0.42% |
| COc1ccc(CCC(=O)Nc2nc3ccc(Cl)cc3s2)cc1OC [KY02111] | 100.86 ± 1.83% |
| O=c1cc(N2CCOCC2)oc2c1ccc1ccccc12 [NU7026] | 100.14 ± 4.13% |
| O=c1cc(N2CCOCC2)oc2c(-c3cccc4c3sc3ccccc34)cccc12 [NU7441] | 88.88 ± 3.55% |
| CCCCc1nc2cc(/C=C/C(=O)NO)ccc2n1CCN(CC)CC [SB939] | 15.56 ± 2.26% |

Same assay, conditions: 10 μM inhibitor, 72 hours

| SMILES | % survival |
| --- | --- |
| Cl.O=C([C@@H](Cc1cccc(C(F)(F)F)c1)NS(=O)(=O)c1cc(F)c2c(c1)CCNC2)N1CCCC1 [(R)-PFI2 hydrochloride] | 96.42 ± 0.64% |
| Clc1cc2c(NC3CCCC3)nnc(-c3ccncc3)c2cc1Cl [A196] | 107.43 ± 0.21% |
| CN(C)[C@H]1CN(C2CCc3cccc(F)c32)C[C@@H]1c1ccc(N2CCN(S(C)(=O)=O)CC2)cc1 (some centres unmarked) [A395] | 87.94 ± 9.49% |
| CCN(C(=O)CO)[C@H]1CN(/C(=N\C#N)Nc2cccc(OC(F)F)c2)N=C1c1ccc(Cl)c(Cl)c1 [BAY598] | 101.44 ± 8.52% |
| COc1ccc(CCC(=O)Nc2nc3ccc(Cl)cc3s2)cc1OC [KY02111] | 95.18 ± 2.27% |
| O=c1cc(N2CCOCC2)oc2c1ccc1ccccc12 [NU7026] | 83.17 ± 1.44% |
| O=c1cc(N2CCOCC2)oc2c(-c3cccc4c3sc3ccccc34)cccc12 [NU7441] | 22.95 ± 0.98% |
| CCCCc1nc2cc(/C=C/C(=O)NO)ccc2n1CCN(CC)CC [SB939] | 2.25 ± 0.31% |

Source: patent US20230183751A1, “HDR ENHANCERS” (OXFORD GENETICS LIMITED, priority 2020, published 2023)
